Two compounds from patent publication US11547681B2, “N-acylethanolamide derivatives and uses thereof” (ELIEM THERAPEUTICS, INC., priority 2016, dated 2023) can be followed below.

Each structure is given as a SMILES string.

The series in a line: in vitro. The settings on record: for Measured concentration of analyte PEA, 0 min / Measured concentration of analyte PEA, 10 min / Measured concentration of analyte PEA, 20 min / Measured concentration of analyte PEA, 30 min / Measured concentration of analyte PEA, 60 min / % Remaining of Initial, 0 min / % Remaining of Initial, 10 min / % Remaining of Initial, 20 min / % Remaining of Initial, 30 min / % Remaining of Initial, 60 min / Concentration, analyte PEA / % Remaining of Initial (n = 1): 1 μM; for % Remaining of Initial, 0 min / % Remaining of Initial, 10 min / % Remaining of Initial, 20 min / % Remaining of Initial, 30 min / % Remaining of Initial, 60 min / microsomal CLint at 1 μM / half-life at 1 μM / % Remaining of Initial (n = 1): microsomes. As to the method: The reaction mixture, minus cofactors, was prepared as described below. The test article was added into the reaction mixture at a final concentration of 1 μM. […] An aliquot of the reaction mixture (without cofactor) was equilibrated in a shaking water bath at 37° C. for 3 minutes. The reaction was initiated by the addition of cofactor, and the mixture was incubated in a shaking water bath at 37° C. Aliquots (100 μL) were withdrawn at 0, 10, 20, 30, and 60 minutes. All samples were immediately combined with 400 μL of ice-cold 50/50 acetonitrile/H2O containing 0.1% formic acid and internal standard to terminate the reaction. The samples were then mixed and centrifuged to precipitate proteins. Calibration standards were prepared in matched matrix. All samples and standards were assayed by LC-MS/MS using electrospray ionization for both the dosed prodrug I-9 and the expected drug (PEA). Analytical conditions are outlined in Appendix 4-1. The test article concentration at each time point was compared to the test article concentration at time 0 to determine the percent remaining at each time point. Half-lives were calculated using GraphPad software, fitting to a single-phase exponential decay equation.
Reaction mixture, minus cofactors, was prepared as described below. Test article was added into the reaction mixture at a final concentration of 1 μM. […] An aliquot of the reaction mixture (without cofactor) was equilibrated in a shaking water bath at 37° C. for 3 minutes. The reaction was initiated by the addition of cofactor, and the mixture was incubated in a shaking water bath at 37° C. Aliquots (100 μL) were withdrawn at 0, 10, 20, 30, and 60 minutes. Test article samples were immediately combined with 300 μL of ice-cold acetonitrile containing 1% formic acid. Control samples were immediately combined with 400 μL of ice-cold 50/50 acetonitrile (ACN)/dH2O containing 0.1% formic acid and internal standard to terminate the reaction. Samples were then mixed and centrifuged to precipitate proteins. Calibration standards were prepared in matched matrix. Samples and standards were assayed by LC-MS/MS using electrospray ionization for both dosed prodrug and expected drug (PEA). Analytical conditions are outlined in Appendix 8-1. Test article concentration at each time point was compared to test article concentration at time 0 to determine the percent remaining at each time point. Half-lives were calculated using GraphPad software, fitting to a single-phase exponential decay equation.
Reaction mixture, minus cofactors, was prepared as described below. Test article was added into the reaction mixture at a final concentration of 1 μM. […] An aliquot of the reaction mixture (without cofactor) was equilibrated in a shaking water bath at 37° C. for 5 minutes. Reaction was initiated by the addition of cofactor, and the mixture was incubated in a shaking water bath at 37° C. Aliquots (100 μL) were withdrawn at 0, 10, 20, 30, and 60 minutes. Test article samples were immediately combined with 300 μL of ice-cold acetonitrile containing 1% formic acid. Control samples were immediately combined with 400 μL of ice-cold 50/50 acetonitrile (ACN)/dH2O containing 0.1% formic acid and internal standard to terminate the reaction. Samples were then mixed and centrifuged to precipitate proteins. Calibration standards were prepared in matched matrix. Samples and standards were assayed by LC-MS/MS using electrospray ionization for both the dosed prodrug and the expected drug (PEA). Analytical conditions are outlined in Appendix 10-1. Test article concentration at each time point was compared to the test article concentration at time 0 to determine the percent remaining at each time point. Half-lives were calculated using GraphPad software, fitting to a single-phase exponential decay equation.
Reaction mixture, minus cofactors, was prepared as described below. Test article was added into the reaction mixture at a final concentration of 1 μM.

The mark [1] stands for this setting: male, Sprague-Dawley, rat, 0 min.
The mark [2] stands for this setting: male, Sprague-Dawley, rat, 10 min.
The mark [3] stands for this setting: male, Sprague-Dawley, rat, 20 min.
Where [4] appears, read: male, Sprague-Dawley, rat, 30 min.
[5] abbreviates: male, Sprague-Dawley, rat, 60 min.
Setting [6] is: male, Sprague-Dawley, rat, 0.5 h.

For `CCCCCCCCCCCCCCCC(=O)NCCOC(=O)CCC(=O)OCC(COC(=O)CCC)OC(=O)CCC` (stereo not drawn) [Compound I-11], the “Measured concentration of analyte PEA, 0 min” value was determined as 0.046 µM (both, human, 0 min) and 0.023 µM under setting [1]. The “Measured concentration of analyte PEA, 10 min” value turned out to be 0.29 µM (both, human, 10 min) and 0.048 µM under setting [2]. Besides, the “Measured concentration of analyte PEA, 20 min” value (both, human, 20 min) came to 0.20 µM and the “Measured concentration of analyte PEA, 20 min” value under setting [3] was 0.031 µM. The “Measured concentration of analyte PEA, 30 min” value runs as follows: (both, human, 30 min) 0.16 µM; under setting [4], 0.0086 µM. Also, the “Measured concentration of analyte PEA, 60 min” value is, setting by setting: (both, human, 60 min) 0.057 µM; under setting [5], 0 µM. Moreover, the “% Remaining of Initial, 0 min” value stood at 100% (both, human, 0 h) and 100% (male, Sprague-Dawley, rat, 0 h). In addition, the “% Remaining of Initial, 10 min” value (both, human, 10 min) turned out to be 3.1% and the “% Remaining of Initial, 10 min” value under setting [2] stood at 3.3%. The “% Remaining of Initial, 20 min” value reads like this: (both, human, 20 min) less than 1.0%; under setting [3], less than 1.0%. In addition, the “% Remaining of Initial, 30 min” value (both, human, 0.5 h) is less than 1.0% and the “% Remaining of Initial, 30 min” value under setting [6] was less than 1.0%. Besides, the “% Remaining of Initial, 60 min” value is given as less than 1.0% (both, human, 1 h) and less than 1.0% (male, Sprague-Dawley, rat, 1 h). This compound gave a microsomal CLint at 1 μM (both, human) of 696 µL/min/mg and an intrinsic clearance (microsomal CLint) at 1 μM (male, Sprague-Dawley, rat) of 681 µL/min/mg. Also, the half-life at 1 μM reads like this: (both, human) 2 min; (male, Sprague-Dawley, rat) 2 min.
As for `CCCCC/C=C\C/C=C\CCCCCCCC(=O)OCC(COC(=O)CCC(=O)OCCNC(=O)CCCCCCCCCCCCCCC)OC(=O)CCCCCCC/C=C\C/C=C\CCCCC` (stereo not drawn) [Compound I-13], the “Concentration, analyte PEA” value reads like this: (both, human, 0 min) 0 nM; (both, human, 10 min) 0 nM; (both, human, 20 min) 0 nM; (both, human, 30 min) 0 nM; (both, human, 60 min) 0 nM; under setting [1], 0 nM. Also, the “Concentration, analyte PEA” value by setting is: under setting [2], 0 nM; under setting [3], 13 nM; under setting [4], 13 nM; under setting [5], 0 nM. Besides, the “% Remaining of Initial (n = 1)” value is, setting by setting: (both, human, 0 h) 100%; (both, human, 10 min) 79%; (both, human, 20 min) 73%; (both, human, 0.5 h) 60%; (both, human, 1 h) 42%; (male, Sprague-Dawley, rat, 0 h) 100%. Moreover, the “% Remaining of Initial (n = 1)” value reads like this: under setting [2], 91%; under setting [3], 72%; under setting [6], 60%; (male, Sprague-Dawley, rat, 1 h) 38%. For the same compound, the microsomal CLint at 1 μM was 29.6 µL/min/mg (both, human) and 33.6 µL/min/mg (male, Sprague-Dawley, rat). The half-life at 1 μM by setting is: (both, human) 47 min; (male, Sprague-Dawley, rat) 41 min.

As a reminder, the microsomal CLint is the capacity of the preparation to metabolise the compound, expressed as a volume cleared per time. Higher therefore signals faster metabolism. In general, half-life refers to how long it takes for the measured level to halve. A low value points to rapid decline.
